Drawing on ChEMBL document CHEMBL1177670 (Bioorg Med Chem, 2010), this text covers Ki and Activity for 23 molecules.

Test [1] concerns the target T1, D(2) dopamine receptor (Homo sapiens, UniProt P14416).
For test [2], the target named is T2, D(3) dopamine receptor (Homo sapiens, UniProt P35462).
Test [3] concerns the target T3, D(4) dopamine receptor (Homo sapiens, UniProt P21917).
T3 sequence (P21917 whole entry): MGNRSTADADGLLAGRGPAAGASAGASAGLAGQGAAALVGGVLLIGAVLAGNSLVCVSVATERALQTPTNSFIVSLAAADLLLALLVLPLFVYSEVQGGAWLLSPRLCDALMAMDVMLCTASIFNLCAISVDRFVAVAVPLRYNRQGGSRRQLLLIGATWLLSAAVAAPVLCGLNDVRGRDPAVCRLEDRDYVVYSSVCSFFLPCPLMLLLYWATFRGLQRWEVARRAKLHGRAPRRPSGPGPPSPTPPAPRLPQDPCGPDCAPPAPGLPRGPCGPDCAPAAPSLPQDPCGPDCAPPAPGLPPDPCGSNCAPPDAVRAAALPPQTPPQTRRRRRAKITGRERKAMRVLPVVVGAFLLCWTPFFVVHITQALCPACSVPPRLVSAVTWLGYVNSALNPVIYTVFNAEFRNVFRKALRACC

Test [4] has as its target T4, Sigma non-opioid intracellular receptor 1 (Cavia porcellus, UniProt Q60492).
Description: (§1) Displacement of [3H](+)-pentazocine from sigma 1 receptor in guinea pig brain homogenates after 1 hr by liquid scintillation counting
Test [5] deals with T1, D(2) dopamine receptor. The experiment in a line: biochemical.
Test [6] deals with T2, D(3) dopamine receptor. Description: biochemical.
Test [7] deals with T3, D(4) dopamine receptor. Description: biochemical.
Test [8] deals with T1, D(2) dopamine receptor. The experiment in a line: Antagonist at human dopamine D2 long receptor expressed in HEK293 cells assessed as inhibition of forskolin-induced adenylyl cyclase activity at 10 nM after 20 mins by spectrophotometric analysis in presence of quinpirole. The format is functional, cell-based.
For test [9], the target named is T4, Sigma non-opioid intracellular receptor 1. Description: biochemical.
Description: as §1

Active and inactive are the calls of the source. No cut-off for these calls is given here.

T1 sequence (P14416 whole entry): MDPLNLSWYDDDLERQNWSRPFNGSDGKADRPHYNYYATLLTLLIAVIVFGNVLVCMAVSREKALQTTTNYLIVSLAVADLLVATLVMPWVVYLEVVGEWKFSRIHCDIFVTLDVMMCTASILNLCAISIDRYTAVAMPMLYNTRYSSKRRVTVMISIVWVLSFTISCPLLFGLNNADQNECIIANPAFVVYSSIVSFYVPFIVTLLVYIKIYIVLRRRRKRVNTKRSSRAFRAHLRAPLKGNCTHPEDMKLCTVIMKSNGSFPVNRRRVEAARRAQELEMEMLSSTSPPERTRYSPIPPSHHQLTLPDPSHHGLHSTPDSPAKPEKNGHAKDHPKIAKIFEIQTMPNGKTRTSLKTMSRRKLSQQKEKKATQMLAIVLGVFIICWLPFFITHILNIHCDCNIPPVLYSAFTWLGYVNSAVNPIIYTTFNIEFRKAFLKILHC
T2 sequence (P35462 whole entry): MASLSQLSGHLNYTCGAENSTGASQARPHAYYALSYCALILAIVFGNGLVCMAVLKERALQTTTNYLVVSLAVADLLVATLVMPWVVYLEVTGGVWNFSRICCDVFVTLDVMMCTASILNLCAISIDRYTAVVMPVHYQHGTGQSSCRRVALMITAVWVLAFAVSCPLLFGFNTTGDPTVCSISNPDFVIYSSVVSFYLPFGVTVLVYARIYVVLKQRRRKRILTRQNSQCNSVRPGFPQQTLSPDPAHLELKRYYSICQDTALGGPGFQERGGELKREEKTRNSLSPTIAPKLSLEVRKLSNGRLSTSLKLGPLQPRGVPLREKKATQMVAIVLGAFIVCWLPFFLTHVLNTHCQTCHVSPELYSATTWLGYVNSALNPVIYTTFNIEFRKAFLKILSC
T4 sequence (Q60492 whole entry): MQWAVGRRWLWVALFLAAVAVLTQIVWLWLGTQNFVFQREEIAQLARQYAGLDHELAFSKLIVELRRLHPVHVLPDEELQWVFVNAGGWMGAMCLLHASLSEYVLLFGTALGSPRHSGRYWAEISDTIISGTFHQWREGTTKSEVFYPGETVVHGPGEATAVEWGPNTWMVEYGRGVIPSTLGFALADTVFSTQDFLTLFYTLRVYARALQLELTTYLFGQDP

As for `COc1cccc2[nH]cc(CN3CCC(O)(c4ccc(Br)cc4)CC3)c12`, the Ki (commonly a measure of affinity in units of concentration, obtained from inhibition or displacement) at D(2) dopamine receptor [1] amounted to 2.3 nM; at D(3) dopamine receptor [2], 190 nM; at D(4) dopamine receptor [3], 840 nM; in test [4] it was 2560 nM.

For `OC1(c2ccc(Br)cc2)CCN(Cc2c[nH]c3ccccc23)CC1`, the Ki came to 4.8 nM at D(2) dopamine receptor [1], 110 nM at D(3) dopamine receptor [2], 652 nM at D(4) dopamine receptor [3] and 12.1 nM in [4].

At D(2) dopamine receptor [5], `OC1(c2ccc(I)cc2)CCN(Cc2coc3ccccc23)CC1` registered a Ki of 2.4 nM.

For `CN1CN(c2ccccc2)C2(CCN(Cc3coc4ccccc34)CC2)C1=O`, the Ki at D(2) dopamine receptor [5] was determined as 7.1 nM; at D(3) dopamine receptor [6] it was 2.1 nM; at D(4) dopamine receptor [7] it was 492 nM.

`OC1(c2ccc(Br)cc2)CCN(Cc2c[nH]c3ncccc23)CC1`: the Ki worked out at 212 nM at D(2) dopamine receptor [5], 2980 nM at D(3) dopamine receptor [6] and 620 nM on D(4) dopamine receptor [7].

Take `O=C1N(Cc2cn(CCF)nn2)CN(c2ccccc2)C12CCN(Cc1coc3ccccc13)CC2`: the values for the Ki at D(2) dopamine receptor [5], on D(3) dopamine receptor [6] and at D(4) dopamine receptor [7] were 2 nM, 0.9 nM and 978 nM, respectively.

On to `COc1ccc2[nH]cc(CN3CCC(O)(c4ccc(Br)cc4)CC3)c2c1`, for which the Ki at D(2) dopamine receptor [1] is 2.5 nM; on D(4) dopamine receptor [3], 700 nM; in [4], 108 nM.

Consider `COc1ccc2[nH]cc(CN3CCC(O)(c4ccc(I)cc4)CC3)c2c1`, for which the outcome on D(2) dopamine receptor [8] was Active. The Ki at D(2) dopamine receptor [5] worked out at 0.9 nM; on D(3) dopamine receptor [6] it was 100 nM; at D(4) dopamine receptor [7] it was 129 nM.

As for `COc1cccc2[nH]cc(CN3CCC(O)(c4ccc(Cl)cc4)CC3)c12`, the Ki is 4.2 nM on D(2) dopamine receptor [1], 250 nM on D(3) dopamine receptor [2], greater than 2000 nM on D(4) dopamine receptor [3] and greater than 5000 nM in test [4].

Regarding `OC1(c2ccc(Cl)cc2)CCN(Cc2c[nH]c3ccccc23)CC1`, the Ki at D(3) dopamine receptor [2] was 104 nM; at D(4) dopamine receptor [3], 449 nM.

Take `OC1(c2ccccc2)CCN(Cc2cc3ccccc3s2)CC1`: the Ki came out at 46.8 nM on D(2) dopamine receptor [5], 142 nM at D(3) dopamine receptor [6] and 2.13 nM in test [9].

Take `OC1(c2ccc(I)cc2)CCN(Cc2cc3ccccc3o2)CC1`: the Ki at D(3) dopamine receptor [6] worked out at 49 nM; at D(4) dopamine receptor [7], 245 nM.

With `COc1ccc2[nH]cc(CN3CCC(O)(c4ccc(Cl)cc4)CC3)c2c1`, the Ki at D(2) dopamine receptor [1] was 4.2 nM; at D(3) dopamine receptor [2], 204 nM; at D(4) dopamine receptor [3], greater than 3500 nM; in test [4], 242 nM.

With `COc1ccc2[nH]cc(CN3CCC(O)(c4ccccc4)CC3)c2c1`, the figures for the Ki at D(2) dopamine receptor [5], at D(3) dopamine receptor [6] and on D(4) dopamine receptor [7] were 1400 nM, 2930 nM and greater than 10000 nM, respectively.

For the molecule `OC1(c2ccc(Br)cc2)CCN(Cc2c[nH]c3ccc(OCCF)cc23)CC1`, the values for the Ki at D(3) dopamine receptor [6] and at D(4) dopamine receptor [7] were 188 nM and 344 nM, respectively.

Regarding `COc1cccc2[nH]cc(CN3CCC(O)(c4ccc(I)cc4)CC3)c12`, the result on D(2) dopamine receptor [8] was Active. Besides, on D(3) dopamine receptor [6], the Ki came to 122 nM.

As to `OC1(c2ccc(Br)cc2)CCN(Cc2c[nH]c3cccc(OCCF)c23)CC1`, the Ki at D(3) dopamine receptor [6] came to 849 nM; on D(4) dopamine receptor [7] it was 668 nM.

As for `CSc1ccc(C2(O)CCN(Cc3c[nH]c4ncccc34)CC2)cc1`, the Ki at D(2) dopamine receptor [5] was determined as 254 nM; on D(3) dopamine receptor [6], 4940 nM; on D(4) dopamine receptor [7], 937 nM.

Take `OC1(c2ccc(Br)cc2)CCN(Cc2cc3ccccc3o2)CC1`: the affinity at D(4) dopamine receptor [7], expressed as Ki, was 254 nM.

In the case of `O=C1N(CCF)CN(c2ccccc2)C12CCN(Cc1coc3ccccc13)CC2`, the Ki is 8 nM on D(2) dopamine receptor [5], 9.3 nM at D(3) dopamine receptor [6] and 945 nM on D(4) dopamine receptor [7].

For the molecule `OC1(c2ccc(Br)cc2)CCN(Cc2coc3ccccc23)CC1`, the Ki was 6.6 nM at D(2) dopamine receptor [5] and 10.9 nM on D(3) dopamine receptor [6].

Turning to `OC1(c2ccc(I)cc2)CCN(Cc2c[nH]c3ncccc23)CC1`, the figures for the Ki on D(2) dopamine receptor [5], on D(3) dopamine receptor [6] and on D(4) dopamine receptor [7] were 61 nM, 1590 nM and 634 nM, respectively.

In turn, `OC1(c2ccc(I)cc2)CCN(Cc2c[nH]c3ccccc23)CC1` had a Ki at D(2) dopamine receptor [5] of 3.8 nM. This counts as single-digit nanomolar.
